Assay results published in patent US12280036B2, “Using fatty acid synthase inhibitors to treat fibrosis” (Mayo Foundation for Medical Education and Research, priority 2016, dated 2025).

Assays:
[1] = system: AKR-2B cells; assay: Scratch assay (cell migration), AKR-2B; format: cell-based, murine; conditions: C75 3 μM, TGFβ 10 ng/ml, 24 hours
Procedure: (§1) Murine fibroblasts (AKR-2B) and human lung fibroblasts (MRCS) were treated for 24 hours with vehicle (0.025% DMSO), TGFβ (10 ng/ml), or both TGFβ (10 ng/ml) and C75 (3 μM). Following 24 hours of treatment, culture plates were manually scratched. TGFβ increased cell migration, but inhibition of FASN activity with C75 suppressed TGFβ induced cell migration (FIG. 4C). Data are representative of 3 separate experiments.
Murine (AKR-2B) lung fibroblasts were transfected with either a nontargeting control siRNA (60 nmol/L) or with FASN-targeting siRNA (60 nmol/L). After 72 hours of cultivation, the transient transfectants were stimulated in the absence or presence of 10 ng/ml TGFβ for 24 hours. Following 24 hours of treatment, culture plates were manually scratched. TGFβ increased cell migration, but inhibition of FASN activity with FASN-targeting siRNA suppressed TGFβ induced cell migration (FIG. 5C). Data are representative of 3 separate experiments.

[2] = Serum liver enzymes in bleomycin or saline challenged mice; format: in vivo, C57BL/6 mice; conditions: 3.0 mg/kg C75 every 4th day from day 14; blood at days 0, 14, and 28
Procedure: C57BL/6 mice were intratracheally treated with an equal volume of saline (control) or bleomycin (BLM; 0.075 U). On day 14 all animals began treatment every 4th day with either vehicle (Methocel/saline) or 3.0 mg/kg of C75. Blood samples were obtained at days 0, 14, and 28 from the facial vein of unanesthetized animals and assessed for effect on liver enzymes. Serum levels (U/L, units per liter; g/dL, grams per deciliter) of alkaline phosphatase (ALP), alanine aminotransferase (ALT), and albumin were determined using a Piccolo Xpress Chemistry Analyzer (FIG. 7A). Data are presented as mean+/−SEM of n=5.

[3] = system: profibrotic TGFβ signaling; assay: Western blot of TGFβ induced profibrotic proteins in MRCS lung fibroblasts; format: cell-based, human; conditions: C75 3 μM, TGFβ 10 ng/ml, 24 hours
Procedure: (§2) Murine fibroblasts (AKR-2B) and human lung fibroblasts (MRCS) were treated for 24 hours with vehicle (0.025% DMSO) or C75 (FASN inhibitor, 3 μM) in the presence or absence of TGFβ (10 ng/ml). Proteins were obtained from treated and control cells. Protein samples were Western blotted for FASN, Col I, Col IV, FN, CTGF, and pSmad3, and Western blotted for GAPDH as a loading control. TGFβ increased expression of FASN, Col I, Col IV, FN, CTGF, and pSmad3, but inhibition of FASN activity with C75 suppressed TGFβ induced Col I, Col IV, and FN expression (FIG. 4A).
(§3) Murine fibroblasts (AKR-2B) and human lung fibroblasts (MRCS) were transfected with either a nontargeting control siRNA (60 nmol/L) or with FASN-targeting siRNA (60 nmol/L). After 72 hours of cultivation, the transient transfectants were stimulated in the absence or presence of 10 ng/ml TGFβ for 24 hours. Proteins were obtained from treated and control cells. Protein samples were Western blotted for FASN, Col I, Col IV, FN, CTGF, and pSmad3, and Western blotted for GAPDH as a loading control. TGFβ increased expression of FASN, Col I, Col IV, FN, CTGF, and pSmad3, but inhibition of FASN activity with FASN-targeting siRNA suppressed TGFβ induced Col I, Col IV, and FN expression (FIG. 5A).

[4] = system: profibrotic TGFβ signaling; assay: Western blot of TGFβ induced profibrotic proteins in AKR-2B fibroblasts; format: cell-based, murine; conditions: C75 3 μM, TGFβ 10 ng/ml, 24 hours
Procedure: as §2, §3

[5] = system: MRCS cells; assay: Scratch assay (cell migration), MRCS; format: cell-based, human; conditions: C75 3 μM, TGFβ 10 ng/ml, 24 hours
Procedure: as §1

[6] = system: FN, CTGF, and Col I; assay: qPCR of profibrotic genes in lung tissue of bleomycin challenged mice; format: in vivo; conditions: 0.03, 0.3, or 3 mg/kg C75 intraperitoneal every 4th day from day 14, lung harvested day 28, dose dependent
Procedure: Mice were challenged with bleomycin or vehicle (methocel/0.1% DMSO), and every 4th day, beginning 14 days following initial bleomycin insult, were treated by intraperitoneal injection with vehicle, 0.03 mg/kg, 0.3 mg/kg, or 3 mg/kg C75. Murine lung tissue was harvested on day 28 and RNA was obtained. qPCR was performed using primers specific for FN, CTGF, and Col I.
Data reflect mean standard deviation from lungs of n=5 (control, bleomycin, 0.03 mg/kg C75), 7 (0.3 mg/kg C75), or 8 (3 mg/kg C75) animals.

[7] = system: AKR-2B cells; assay: Soft agar colony formation assay; format: cell-based, murine; conditions: 0, 0.3, 1, 3, or 10 μM C75, TGFβ 10 ng/ml, 7 days growth, dose dependent
Procedure: Murine fibroblasts (AKR-2B) were treated for 24 hours with vehicle (0.025% DMSO) or C75 (FASN inhibitor, 3 μM) in the presence or absence of TGFβ (10 ng/ml), and 0, 0.3, 1, 3, or 10 μM C75. Following 7 days growth, cells were subjected to soft agar colony formation assays. TGFβ increased colony formation, but inhibition of FASN activity with C75 suppressed TGFβ induced colony formation in a dose dependent manner (FIG. 4B; *p-value<0.05, **p-value<0.01). Data reflect the mean+/−standard deviation of triplicate wells from 3 experiments.
Murine fibroblasts (AKR-2B) were transfected with either a nontargeting control siRNA (60 nmol/L) or with FASN-targeting siRNA (60 nmol/L). After 72 hours of cultivation, the transient transfectants were stimulated in the absence or presence of 10 ng/ml TGFβ for 24 hours. Following 7 days growth, cells were subjected to soft agar colony formation assays. TGFβ increased colony formation, but inhibition of FASN activity with FASN-targeting siRNA suppressed TGFβ induced colony formation (FIG. 5B; **p-value<0.01). Data reflect the mean standard deviation of triplicate wells from 3 experiments.

[8] = Blood inflammatory cells in bleomycin or saline challenged mice; format: in vivo, C57BL/6 mice; conditions: 3.0 mg/kg C75 every 4th day from day 14; blood at days 0, 14, and 28
Procedure: C57BL/6 mice were intratracheally treated with an equal volume of saline (control) or bleomycin (BLM; 0.075 U). On day 14 all animals began treatment every 4th day with either vehicle (Methocel/saline) or 3.0 mg/kg of C75. Blood samples were obtained at days 0, 14, and 28 from the facial vein of unanesthetized animals and assessed for effect on inflammatory cells. Quantification of lymphocytes, monocytes, and neutrophils were measured using a VetScan HM5 Analyzer (FIG. 7B). Data are presented as mean+/−SEM of n=5.

[9] = system: MRCS cells; assay: In vitro cell proliferation (MTT assay and cell counts), MRCS; format: cell-based, human; conditions: C75 3 μM, FBS free or 10% FBS
Procedure: (§4) Murine fibroblasts (AKR-2B) and human lung fibroblasts (MRCS) were seeded at 2.5×10^3 or 1×10^4 cells/96 well plate, respectively. AKR-2B cells were seeded in medium containing 10% DMEM/FBS, and MRCS cells were seeded in medium containing 10% EMEM/FBS. 24 hours after seeding, the medium was removed and replaced with DMEM or EMEM containing vehicle (0.1% DMSO), or C75 (3 μM) either in 10%, 0.1%, or 0% FBS for 24 hours prior to MTT assay (FIG. 6A). Absorbance was measured at 570 nm. Results represent mean±SEM from three independent experiments
as §4, with “1.0×10^4 cells/well in 24” for “2.5×10^3 or 1×10^4 cells/96”, “plates for 24 hours.” for “plate, respectively.”, “determining cell counts following an additional 24 hour and 48 hour incubation” for “MTT assay”, “6B).” for “6A). Absorbance was measured at 570 nm.”, “experiments.” for “experiments”

[10] = Oxygen saturation (SpO2) in bleomycin challenged mice; format: in vivo; conditions: 0.03, 0.3, or 3 mg/kg C75 every 4th day from day 14, room air, dose dependent
Procedure: Mice were challenged with bleomycin or saline for 25 days, and every 4th day, beginning 14 days following initial bleomycin insult, were treated with vehicle (methocel/0.1% DMSO) or with 0.03 mg/kg, 0.3 mg/kg, or 3 mg/kg C75. Oxygen saturation (SpO2) levels (determined on room air) were measured.
Bleomycin-induced fibrotic conditions caused reduced, time-dependent fluctuations in oxygen saturation, but inhibition of FASN activity with C75 stabilized lung gas exchange in a dose dependent manner (FIG. 7; *p-value<0.05, **p-value<0.01). Error bars reflect standard deviation from n=5 (control, BLM, 0.03 mg/kg C75), 7 (0.3 mg/kg C75), or 8 (3 mg/kg C75) animals.

[11] = system: AKR-2B cells; assay: In vitro cell proliferation (MTT assay and cell counts), AKR-2B; format: cell-based, murine; conditions: C75 3 μM, 0.1% FBS or 10% FBS
Procedure: as §4
as §4, with “1.0×10^4 cells/well in 24” for “2.5×10^3 or 1×10^4 cells/96”, “plates for 24 hours.” for “plate, respectively.”, “determining cell counts following an additional 24 hour and 48 hour incubation” for “MTT assay”, “6B).” for “6A). Absorbance was measured at 570 nm.”, “experiments.” for “experiments”

[12] = Adenovirus-TGFβ model of pulmonary fibrosis; format: in vivo; conditions: adenovirus-TGFβ1 mice; 3.0 mg/kg C75 every 4th day from day 21; blood oxygen days 21 and 35, hydroxyproline and qPCR day 39
Procedure: Mice were infected with 1×10^8 pfu adenovirus particles expressing control (GFP) or active TGFβ1 by tracheal instillation. On day 21 all animals began treatment every 4th day with either vehicle (Methocel/saline) or 3.0 mg/kg of C75. Peripheral blood oxygen determined on days 21 and 35 (FIG. 10A). Data reflect mean+/−SEM of n=8 and n=15 for adenovirus-GFP and adenovirus-TGFβ, respectively. *P<0.05. Mice were infected with 1×10^8 pfu adenovirus particles expressing control (GFP) or active TGFβ1 by tracheal instillation. On day 21 all animals began treatment every 4th day with either vehicle (Methocel/saline) or 3.0 mg/kg of C75. Mice were sacrificed on day 39 and processed for lung hydroxyproline content (FIG. 10B). Data reflect mean+/−SEM of n=8 and n=15 for adenovirus-GFP and adenovirus-TGFβ, respectively. **P<0.01. Mice were infected with 1×10^8 pfu adenovirus particles expressing control (GFP) or active TGFβ1 by tracheal instillation. On day 21 all animals began treatment every 4th day with either vehicle (Methocel/saline) or 3.0 mg/kg of C75. Mice were sacrificed on day 39 and processed for qPCR expression of connective tissue growth factor (CTGF), alpha smooth muscle actin (α-SMA), and collagen Iα1 (Col Iα1). Data reflect mean+/−SEM of n=8 and n=15 for adenovirus-GFP and adenovirus-TGFβ, respectively. *P<0.05, **P<0.01.

[13] = system: FASN; assay: Western blot of TGFβ induced FASN expression in MRCS lung fibroblasts; format: cell-based, human; conditions: TGFβ 10 ng/ml, Rapamycin 100 nM, Torin 200 nM, 24 hours
Procedure: (§5) Murine fibroblasts (AKR-2B) and human lung fibroblasts (MRCS) were transfected with either a nontargeting control siRNA (60 nmol/L) or with Smad2/3-targeting siRNA (60 nmol/L). After 72 hours of cultivation, the transient transfectants were stimulated in the absence or presence of 10 ng/ml TGFβ for 24 hours. Proteins were obtained from treated and control cells. Protein samples were Western blotted for FASN, pSmad2, pSmad3, and connective tissue growth factor (CTGF), and Western blotted for GAPDH as a loading control.
(§6) Murine fibroblasts (AKR-2B) and human lung fibroblasts (MRCS) were stimulated in the absence or presence of TGFβ (10 ng/ml) plus a PI3K inhibitor (LY294002; 10 μM), a MEK inhibitor (U0126; 10 μM), an AKT inhibitor (MK2206; 0.3 μM), a mTORC1 inhibitor (Rapamycin; 100 nM), or a mTORC1,2 inhibitor (Torin; 200 nM). Expression of pErk and pS6K/pS6K was determined at 1 and 6 hours post-stimulation while FASN, pSmad3, and GAPDH assessed at 24 hours. TGFβ induced FASN expression was abrogated in the presence of rapamycin or torin (FIGS. 3C and 3D).

[14] = system: FASN; assay: Western blot of TGFβ induced FASN expression in AKR-2B fibroblasts; format: cell-based, murine; conditions: TGFβ 10 ng/ml, Rapamycin 100 nM, Torin 200 nM, 24 hours
Procedure: as §5, §6

Row | Compound | TGFβ induced cell migration [1] | murine liver enzymes (serum ALP, ALT, albumin) [2] | TGFβ induced Col I, Col IV, and FN expression [3] | TGFβ induced Col I, Col IV, and FN expression [4] | TGFβ induced cell migration [5] | FN, CTGF, and Col I expression (qPCR, lung tissue) [6] | TGFβ induced colony formation [7] | inflammatory cell recruitment (lymphocytes, monocytes, neutrophils) [8] | in vitro cell proliferation (OD570, cell counts) [9] | lung gas exchange (oxygen saturation, SpO2) [10] | in vitro cell proliferation (OD570, cell counts) [11] | lung function [12] | TGFβ induced FASN expression [13] | TGFβ induced FASN expression [14]
1 | C=C1C(=O)OC(CCCCCCCC)C1C(=O)O (centres unmarked) [C75] | suppressed | no effect | suppressed | suppressed | suppressed | reduced | suppressed | no effect | does not inhibit | stabilized | does not inhibit | stabilizes lung function | – | –
2 | Torin | – | – | – | – | – | – | – | – | – | – | – | – | abrogated | abrogated
